Results on three molecules are retold here after ChEMBL document CHEMBL5614434, “A Lysosome-Targeting hNEU1 Inhibitor Treats Myocardial Infarction: A Potential Therapeutic Breakthrough” (J Med Chem, 2024).

One data set has as its system H9c2. The data set can be described thus: Cytotoxicity against rat H9c2 cells assessed as cell viability at 0.001 to 50 uM under normoxia condition by CCK-8 method. It counts as toxicity, cell-based. The following applies: h9c2, 50 µM, dose 0.001-50 µM. In general terms: Tetrazolium dyes change colour on reduction, which living cells bring about.
A short description of data set [1]: Drug localization in lysosome of rat H9c2 cells by confocal microscopy based analysis. The data set is classed as ADME, subcellular.
The nature of data set [2]: Drug localization in Mitochondria of rat H9c2 cells by confocal microscopy based analysis. The data set is classed as ADME.
Data set [3] can be described thus: Drug uptake in lysosomes of rat H9c2 cells assessed as time required for compound concentration in lysosomes to exceed the cell lysates by HPLC analysis. The data set is classed as ADME, subcellular, Lysosome.

With `CCC(CC)O[C@@H]1C=C(C(=O)OCCN2CCNCC2)C[C@H](N)[C@H]1NC(C)=O`, the Activity entry with H9c2 is “Non-Toxic”.
On to `CCC(CC)O[C@@H]1C=C(C(=O)OCCN2CCOCC2)C[C@H](NC(=S)Nc2ccc3c(c2)C(=O)OC32c3ccc(O)cc3Oc3cc(O)ccc32)[C@H]1NC(C)=O`, for which the Drug uptake result in data set [1] and in data set [2] was “Active” in each case.
As to `CCC(CC)O[C@@H]1C=C(C(=O)O)C[C@H](N)[C@H]1NC(C)=O` [OSELTAMIVIR CARBOXYLATE], the Time in data set [3] worked out at 7.15 min.
